Tests used:
Format in all cases: functional, cell-based
[1] = Cytotoxicity against CCO cells; settings: Ictalurus punctatus
[2] = Cytotoxicity against rat PC12 cells; settings: PC-12
[3] = Cytotoxicity against gastric cancer cells (unknown origin); settings: Cancer cell lines, Stomach
[4] = Cytotoxicity against breast cancer cells (unknown origin); settings: Cancer cell lines
[5] = Cytotoxicity against epithelial cancer cells (unknown origin); settings: Cancer cell lines
[6] = Cytotoxicity against rat PC12 cells after 24 hrs; settings: PC-12, 24 h

SMILES: CCCn1cc[n+](C)c1
- EC50 [1]: > 10 µM

SMILES: CCCCCCCCn1cc[n+](C)c1.O=S(=O)([N-]S(=O)(=O)C(F)(F)F)C(F)(F)F
- EC50 [1]: < 0.1 µM

SMILES: CCCCn1cc[n+](C)c1
- EC50 [2]: > 9120 µM

SMILES: CC(=O)Oc1ccc(Cn2cc[n+](-c3c(C)cc(C)cc3C)c2)cc1
- IC50 [3]: 10 µM
- IC50 [4]: 20 µM

SMILES: CCCCCCCCCCCCn1cc[n+](C)c1
- EC50 [2]: 24 µM

SMILES: c1c[n+](C23CC4CC(CC(C4)C2)C3)cn1C12CC3CC(CC(C3)C1)C2
- IC50 [5]: 1 µM

SMILES: c1ccc(Cc2cn(Cc3ccccc3)c[n+]2Cc2ccccc2)cc1
- IC50 [5]: 20 µM

SMILES: CC(=O)Oc1ccc(Cn2cc[n+](Cc3ccccc3)c2C)cc1
- IC50 [5]: 28 µM

SMILES: Cc1ccc(C[n+]2ccn(Cc3ccccc3)c2)cc1
- IC50 [5]: 30 µM

SMILES: Cc1n(Cc2ccccc2)cc[n+]1Cc1ccccc1C(F)(F)F
- IC50 [5]: 35 µM

SMILES: c1ccc(CCn2cc[n+](CCc3ccccc3)c2)cc1
- IC50 [5]: 20 µM

SMILES: Cc1n(Cc2ccccc2)cc[n+]1Cc1ccccc1
- IC50 [3]: 35 µM
- IC50 [4]: 35 µM

SMILES: CCCCCCCn1cc[n+](C)c1.O=S(=O)([N-]S(=O)(=O)C(F)(F)F)C(F)(F)F
- EC50 [1]: < 0.1 µM

SMILES: CCCCCCCC[n+]1ccn(C)c1
- EC50 [6]: 560 µM
